For orientation: kinetic solubility means solubility judged after dilution from a stock solution rather than from solid.

Converted amounts (≈) assume the structure as drawn. Residues, ends and D or L forms follow the SMILES beside them.

The conditions of the series: buffer; pH 7.4; 200.0 µM.
As for `CC1=C([N+](=O)[O-])C(c2ccccc2Cl)NC(=O)N1C` (centres undefined), the kinetic solubility was more than 42.3 µg/mL.

In turn, `Oc1c(CN2CCOCC2)ccc2ccccc12` showed a solubility (kinetic) of 16.9 µg/mL (≈ 69.5 µM). Compound `CCCC1(c2ccccc2)NC(=O)N(C/C=C/Cl)C1=O` (centres undefined) had a solubility (kinetic) of more than 43.9 µg/mL. `COc1cc(SC)ccc1C(=O)OCC(=O)NC1CCCCC1` showed a kinetic solubility of 2.2 µg/mL (≈ 6.52 µM).

`COc1ccc(-n2c(O)c(C=NCc3ccc4c(c3)OCO4)c(=O)[nH]c2=O)cc1` had a kinetic solubility of 6.8 µg/mL (≈ 17.2 µM). This solubility kinetic is about 3.1-fold higher than that of the compound before. The result for `FC(F)(F)c1cccc(NC(=S)N2CCCCCC2)c1` reads 22.3 µg/mL (≈ 73.8 µM); that for `COc1ccc(Cl)cc1NC(=O)C(C)N1CCc2ccccc21` (centres undefined), 1.1 µg/mL (≈ 3.33 µM); that for `Cc1nnc(SCC(=O)Nc2sccc2C#N)s1`, more than 44.5 µg/mL. Consider `Cc1cccc(OP(N)(=O)Oc2cccc(C)c2)c1`, for which the kinetic solubility came out at 40.6 µg/mL (≈ 146 µM). `Cc1cccc(NC(=O)c2cccc(C(=O)Nc3cccc(C)c3)n2)c1` displayed a solubility (kinetic) of less than 0.2 µg/mL. `O=C(CCNS(=O)(=O)c1ccccc1)N1CCCC1` showed a kinetic solubility of more than 42.4 µg/mL. Compound `O=C1NCC(COc2cccc3ccccc23)O1` (centres undefined) came in with a kinetic solubility of more than 36.5 µg/mL. Take `COc1ccc(/C=C/C(=O)ONC2=NCCCCC2)cc1OC`: the solubility (kinetic) was more than 47.8 µg/mL. The result for `COc1ccc(-c2ncnc(C(F)(F)F)c2-c2csc(C)n2)c(O)c1` reads 53.1 µg/mL (≈ 145 µM); that for `N/C(CC1CC1(Cl)Cl)=N\OC(=O)c1ccccc1` (centres undefined), more than 43.1 µg/mL; that for `COc1cccc(C(=O)OCC(=O)Nc2cc(C)on2)c1OC`, more than 48 µg/mL. `CC(C)CNC(=O)N1c2ccccc2Sc2ccccc21` gave a kinetic solubility of 7.1 µg/mL (≈ 23.8 µM).

As for `CCOc1ccc(-c2noc(-c3cccnc3)n2)cc1OCC`, the kinetic solubility amounted to 2.2 µg/mL (≈ 7.07 µM). This solubility kinetic lies about 3.2-fold lower than the previous one.

In turn, `NC(=O)C1CCN(C(=O)Cc2ccsc2)CC1` yielded a solubility (kinetic) of more than 37.8 µg/mL. The result for `CN1C(=O)N(C)C2(C)CC1(C)N(C)C(=O)N2C` reads more than 36 µg/mL; that for `C=CCOc1ccccc1CNc1ccc2[nH]c(=O)[nH]c2c1`, more than 44.3 µg/mL; that for `Cc1[nH]c(=S)c(C#N)c(C)c1Cc1ccc(Cl)cc1Cl`, 2.2 µg/mL (≈ 6.81 µM). The figure for `Cc1cnc(NC(=O)CCc2ccccc2)s1` is 8.7 µg/mL (≈ 35.3 µM). The figure for `O=S(=O)(NC1CCCCC1)c1cccc2nsnc12` is 31.6 µg/mL (≈ 106 µM). `NC(=O)CSc1nc(-c2ccccc2)nc2c1CCCC2` had a solubility (kinetic) of 0.5 µg/mL (≈ 1.67 µM). The result for `Cc1ccccc1NCc1nc2ccccc2n1C` reads 5 µg/mL (≈ 19.9 µM); that for `CCC1(c2ccccc2)NC(=O)N(CC(=O)N2CCc3ccccc32)C1=O` (centres undefined), 6.8 µg/mL (≈ 18.7 µM).

`O=C(c1ccccc1)N1CCCN(c2nccc(C(F)(F)F)n2)CC1` came in with a solubility (kinetic) of 44.8 µg/mL (≈ 128 µM). The figure for `CCOc1ccc(-n2c(C)c(C(=O)O)c3cc(OC)ccc32)cc1` is 6.3 µg/mL (≈ 19.4 µM); for `COc1ccccc1OCCNC(=O)Nc1cc(F)c(F)cc1Cl` it is 0.7 µg/mL (≈ 1.96 µM). Take `CN1CCN(CC(C)(C)NS(=O)(=O)c2ccccc2)CC1`: the solubility (kinetic) is more than 46.7 µg/mL. The figure for `Cc1nnc(SCC(=O)Nc2ccc(S(N)(=O)=O)cc2)n(N)c1=O` is more than 55.6 µg/mL; for `COc1ccccc1-n1c(SCC(=O)O)nc2sc3c(c2c1=O)CCC3` it is 41.8 µg/mL (≈ 108 µM); for `Cc1[nH]c2c(Cl)cccc2c(=O)c1CN1CCCCCC1` it is more than 45.7 µg/mL.

The compound `COc1ccc(C2C(C(C)=O)=C(O)C(=O)N2c2ccc(C)cc2)cc1` (centres undefined) registered a kinetic solubility of more than 50.6 µg/mL. The figure for `Nc1ccc(CCN2CCN(c3cccc(C(F)(F)F)c3)CC2)cc1` is more than 52.4 µg/mL; for `Cc1nc2ccccc2c2oc(C(=O)N3CC(C)CC(C)C3)cc12` (centres undefined) it is 35.5 µg/mL (≈ 110 µM). The result for `CC(C)CC(=O)NC(=S)Nc1ccc(N2CCCC2)c(Cl)c1` reads less than 0.2 µg/mL; that for `Cn1c(O)c(/C=N/NC(=O)c2ccncc2)c(=O)[nH]c1=S`, more than 45.8 µg/mL. The result for `O=[N+]([O-])c1ccc(Cl)cc1CN1CCCCCC1` reads 16.7 µg/mL (≈ 62.1 µM); that for `CCc1c(C(=O)Nc2cc(C(=O)OC)ccc2C)csc1C`, 1 µg/mL (≈ 3.15 µM).

`O=C(COC(=O)C1CCCCC1)NCc1ccc(Cl)cc1` yielded a solubility (kinetic) of 31.7 µg/mL (≈ 102 µM). The result for `Cc1cccc(C)c1Nc1nnc(SCC(=O)NCCCN2CCCC2=O)s1` reads more than 62.9 µg/mL. As to `COC(=O)c1sc(-c2ccc(Cl)cc2)cc1NC(=O)COCC(=O)O`, the solubility (kinetic) came out at 28.1 µg/mL (≈ 73.2 µM).

`COc1ccc(Oc2ccccc2C#N)cc1`: the kinetic solubility was 9.9 µg/mL (≈ 44 µM). The result for `Cc1sc2ncnc(SCC(=O)Nc3cccc(S(N)(=O)=O)c3)c2c1C` reads 5.3 µg/mL (≈ 13 µM); that for `O=[N+]([O-])c1ccc2c(c1)c1ccccc1n2CCO`, 6.2 µg/mL (≈ 24.2 µM). The result for `CCCCn1c(=O)[nH]c(=O)c2c1nc(-c1cccc(OC)c1)n2C` reads 3.1 µg/mL (≈ 9.44 µM); that for `COC(=O)[C@H](Cc1ccccc1)NC(=O)[C@@H](N)CC(=O)O` (H-Asp-Phe-OMe), more than 44.1 µg/mL. The figure for `O=C(c1ccccc1)C1CCN(C(=O)Nc2ccccc2)CC1` is 41.2 µg/mL (≈ 134 µM). As for `Nc1cccc2c(=O)c3ccccc3[nH]c12`, the kinetic solubility is 5.6 µg/mL (≈ 26.6 µM). The figure for `CC(c1ccccc1)N1CCN(C(=O)CCl)CC1.Cl` (centres undefined) is 43.3 µg/mL. As to `Cc1cc2nc(-c3ccc(=O)[nH]c3)n(Cc3ccccc3)c2cc1C`, the kinetic solubility turned out to be 43.4 µg/mL (≈ 132 µM).

`CN(C(=O)COC(=O)Cc1ccc(Cl)cc1)C1CCCCC1`: the kinetic solubility was more than 48.6 µg/mL. The result for `COc1ccc2c(c1)CCCC21NC(=O)N(CC(=O)NCc2cccs2)C1=O` (centres undefined) reads more than 59.9 µg/mL; that for `O=C(CNC(=O)c1ccccc1F)NCc1cccnc1`, more than 43.1 µg/mL. Regarding `Clc1ccc(NCc2cccnc2)cc1`, the kinetic solubility was determined as 29.9 µg/mL (≈ 137 µM).

The compound `CCOc1cc(C)c(S(=O)(=O)NCc2ccccn2)cc1C` registered a kinetic solubility of more than 48.1 µg/mL. The compound `Cc1cc(NC(=O)c2cc(-c3ccc(Br)cc3)on2)no1` returned a kinetic solubility of 3 µg/mL (≈ 8.62 µM).

Compound `O=C(Nc1cccc(Cl)c1N1CCOCC1)c1cccs1` displayed a solubility (kinetic) of 1.6 µg/mL (≈ 4.96 µM). `CC(OC(=O)c1ccc2ccccc2n1)C(=O)c1ccccc1` (centres undefined) gave a solubility (kinetic) of more than 45.8 µg/mL. The figure for `Cc1nc(C(=O)NNC(=O)c2cccc(Cl)c2)c(C(F)(F)F)o1` is more than 52.2 µg/mL; for `O=[N+]([O-])c1ccccc1S(=O)(=O)Nc1ccc(S(=O)(=O)N2CCCC2)cc1` it is more than 61.7 µg/mL; for `O=C1NC(N2CCOCC2)=N/C1=C/c1ccc2c(c1)OCO2` it is more than 45.2 µg/mL. `COc1ccc(CCNC(=O)COC(=O)c2ncc(Cl)c(Cl)c2Cl)cc1OC` registered a kinetic solubility of more than 67.2 µg/mL. Take `CN1C(=O)c2cccc3c(S(=O)(=O)N(C)C)ccc1c23`: the kinetic solubility was 14 µg/mL (≈ 48.2 µM).

For the compound `COc1ccc(NC(=O)Nc2ccccn2)cc1OC`, the solubility (kinetic) stood at 16.7 µg/mL (≈ 61.1 µM). The figure for `O=C(O)CCC(=O)N1CCN(c2ncccc2C(F)(F)F)CC1` is 44.5 µg/mL (≈ 134 µM). For `CCNS(=O)(=O)c1ccc(NC(=O)Nc2cc(C)ccc2OC)cc1`, the kinetic solubility is 0.9 µg/mL (≈ 2.48 µM). `CC(C)C(=O)Nc1cc2c3c(c1)CCC(=O)N3CCC2` gave a solubility (kinetic) of more than 40.9 µg/mL. Regarding `Cc1cccc(NC(=O)c2ccc(S(=O)(=O)N3CCCC3)cc2)c1C`, the kinetic solubility was 2 µg/mL (≈ 5.58 µM). The result for `O=C1NC(=O)C(c2cccs2)(c2cccs2)N1` reads more than 39.6 µg/mL. As to `CCOc1ccc(CC(=O)N/N=C/c2cccnc2)cc1`, the solubility (kinetic) is more than 42.5 µg/mL. In turn, `Cc1c(C(=O)NCc2ccccn2)oc2c(Cl)cccc12` displayed a solubility (kinetic) of more than 45.1 µg/mL.

These data come from PubChem BioAssay AID1996.
